In brackets after ≈: the same amount, converted by molar mass. Bridge positions count the residues as written; N and C are the ends. Square brackets hold non-standard residues; d marks the D form. Peptide text beside a SMILES is read from it. * marks the point of attachment. Myristoyl = CCCCCCCCCCCCCC(=O)*; Orn = NCCC[C@H](N)C(=O)O; Dab = NCC[C@H](N)C(=O)O; Dap = NC[C@H](N)C(=O)O
Experiments:
K. pneumoniae CRKP5452 = experiment: Resistance acquisition by serial passaging; assay type: cell-based; settings: K. pneumoniae CRKP5452, sub-MIC levels, daily passage for 21 days, n = 2
Procedure: (§1) Overnight cultures S. aureus USA300 were diluted 10000‐fold in LB broth, and 100 µL of dilute cell suspension was added to 96‐well plates containing 100 µL serially diluted aquicidine C4, telomycin, and daptomycin (with 15 mM CaCl2). Overnight cultures K. pneumoniae CRKP5452 were diluted 5000‐fold in LB broth, and 100 µL of dilute cell suspension was added to 96‐well plates containing 100 µL serially diluted aquicidine L and colistin. After an incubation of 24 h at 37 °C, the MIC value was determined. […] The MIC value was recorded as described above, and the process was repeated daily for 21 days. Experiments were performed two independent times (n = 2).

K. pneumoniae 15580 = experiment: MIC against colistin-resistant strain; assay type: cell-based; settings: Figure S127a
Procedure: (§2) All MIC assays were performed two independent times (n = 2) in 96‐well plates using a broth micro‐dilution method. The lowest concentration of that inhibited visible microbial growth was recorded as the MIC value.
(§3) For most of bacterial strains, overnight cultures were diluted 5000‐fold in LB broth. For E. faecium and S. aureus, overnight cultures were diluted 1000‐ and 10000‐fold in LB broth, respectively. 100 µL of diluted cells was mixed with 100 µL of LB broth containing each peptide ranging from 64 to 0.125 µg mL^−1 at 2‐fold serial dilutions.

[1] = tested on: Acinetobacter baumannii P53; experiment: microbe, parasite or virus in culture; assay type: cell-based; settings: Table S11; LB broth, 37 °C, 16 h, n = 2
How it was run: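 Broth microdilution in LB, run in two independent repeats. Overnight cultures were diluted 5000-fold, except S. aureus at 10000-fold, and mixed with peptide-containing LB (2-fold series, 64 to 0.125 µg mL^−1 before mixing). MIC is the lowest concentration that prevented visible growth.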

[2] = tested on: meropenem-resistant K. pneumoniae CRKP 5452; experiment: Mouse peritonitis-sepsis model; assay type: in vivo; settings: K. pneumoniae CRKP5452, neutropenic ICR mice, s.c. 1 h after infection and every 12 h up to 36 h, doses 12.5, 25, 50 mg kg^−1, n = 5
Procedure: (§4) Six‐week‐old female ICR mice were used in all experiments and housed in a temperature‐controlled room (25 °C) with 12‐h light/dark cycle and 30% relative humidity. Mice were observed twice daily for mortality and morbidity. Abnormal clinical signs were recorded if observed and totally monitored for five days. The detailed methods for the mouse peritonitis‐sepsis model were as follows.
(§5) Meropenem‐resistant A. baumannii 1104008 or K. pneumoniae CRKP 5452 was cultured in LB broth at 37 °C fro 16 h and diluted with 5% type II porcine stomach mucin and 0.9% NaCl. All mice were rendered […] via intraperitoneal injection of cyclophosphamide at 150 mg/kg on day‐4 and day‐1 before infection. A. baumannii or K. pneumoniae cell cultures were diluted to provide a challenge inoculum of 5.0 × 10^7 CFU in 0.5 mL and then administered into each mouse via intraperitoneal injection. 25 mice were randomly grouped into five per cohort (n = 5) and each cohort was given a single dose of either vehicle (20% solutol), aquicidine L at 12.5, 25, or 50 mg kg^−1, and colistin at 12.5 mg kg^−1 1 h after infection via subcutaneous injection and repeated every 12 h up to 36 h (totally four injections).

[3] = tested on: meropenem-resistant A. baumannii 1104008; experiment: Mouse peritonitis-sepsis model; assay type: in vivo; settings: A. baumannii 1104008, neutropenic ICR mice, s.c. 1 h after infection and every 12 h up to 36 h, doses 12.5, 25, 50 mg kg^−1, n = 5
Procedure: as §4, §5

E. coli DH5α = experiment: Membrane component feeding assay; assay type: cell-based; settings: feeding 2 to 128 µg mL^−1, E. coli DH5α, Figure 5e
Procedure: The effects of bacterial membrane components on aquicidine L's or aquicidine C4's anti‐bacterial activities were evaluated using E. coli DH5α or S. aureus USA300. […] All experiments were done in triplicate (n = 3) and repeated two independent times (n = 2).

[4] = tested on: methicillin-resistant S. aureus USA300; experiment: Mouse peritonitis-sepsis model; assay type: in vivo; settings: S. aureus USA300, ICR mice, single s.c. dose 1 h after infection, doses 50, 100, 150 mg kg^−1, n = 5
Procedure: as §4
Methicillin‐resistant S. aureus USA300 was cultured in LB broth at 37 °C for 16 h and diluted with 7% type II porcine stomach mucin with 0.2 mM FeNH4‐citrate. S. aureus cell cultures were diluted to provide a challenge inoculum of 2.5 × 10^8 CFU in 0.5 mL and then administered into each mouse via intraperitoneal injection. 25 mice were randomly grouped into five per cohort (n = 5) and each cohort was given a single dose of either vehicle (20% solutol), aquicidine C4 at 50, 100, or 150 mg kg^−1, and vancomycin at 50 mg kg^−1 1 hr after infection via subcutaneous injection.

S. aureus USA300 = experiment: Resistance acquisition by serial passaging; assay type: cell-based; settings: S. aureus USA300, sub-MIC levels, daily passage for 21 days, n = 2
Procedure: as §1

[5] = tested on: S. aureus USA300 Cls2A338stop; experiment: MIC against telomycin-resistant mutant; assay type: cell-based
Procedure: as §2, §3, §1
Single‐nucleotide polymorphisms (SNPs) for telomycin‐, daptomycin‐ or colistin‐resistant mutants were identified using SNIPPY by mapping DNBSEQ‐seq reads to the reference genome of S. aureus USA300 or K. pneumoniae CRKP5452.

SMILES | increase of MIC during serial passaging (K. pneumoniae CRKP5452) | antibacterial activity (MIC) K. pneumoniae 15580 (K. pneumoniae 15580) | MIC Acinetobacter baumannii P53 [1] | minimal dose required for 100% survival [2] | minimal dose required for 100% survival [3] | inhibition of antibacterial activity by LPS and PE (E. coli DH5α) | minimal dose required for 100% survival [4] | increase of MIC during serial passaging (S. aureus USA300) | antibacterial activity (MIC) S. aureus USA300 Cls2A338stop ([5]; Figure S127b, telomycin-resistant mutant) | increase in MIC against resistant mutant compared to wild type ([5]; S. aureus USA300 Cls2^A338stop vs wild type)
CCCCCCCCCCCCCC(=O)N[C@@H](CN)C(=O)N[C@H](C(=O)N[C@@H](CC(C)C)C(=O)N[C@@H](CO)C(=O)N[C@@H](CCN)C(=O)N[C@@H](CN)C(=O)N[C@@H](Cc1ccccc1)C(=O)N[C@H](C(=O)N[C@@H](CCCN)C(=O)N[C@@H](CC(N)=O)C(=O)N[C@@H](Cc1ccccc1)C(=O)O)[C@@H](C)CC)[C@@H](C)O [synAQU5-L] (Myristoyl-[Dap]TLS[Dab][Dap]FI[Orn]NF-OH) | no higher than two‐fold | 8 µg/mL | 8 µg/mL (≈ 5.56 µM) | 50 mg/kg | 50 mg/kg | stronger dose‐dependent inhibition |  |  |  | 
CCCCCCCCCCCCCC(=O)N[C@@H](CN)C(=O)N[C@H](C(=O)N[C@@H](CC(C)C)C(=O)N[C@H]1COC(=O)[C@H](Cc2ccccc2)NC(=O)[C@H](CC(N)=O)NC(=O)[C@H](CCCN)NC(=O)[C@H]([C@@H](C)CC)NC(=O)[C@H](Cc2ccccc2)NC(=O)[C@H](CN)NC(=O)[C@H](CCN)NC1=O)[C@@H](C)O [synAQU5-C4] (Myristoyl-[Dap]TLS[Dab][Dap]FI[Orn]NF; ester 4-C) |  |  |  |  |  |  | 100 mg/kg | no higher than twofold | 16 µg/mL | 4 fold
